These results are taken from patent US20100292246A1, “FORMULATIONS OF 1-(4-BENZOYL-PIPERAZIN-1-YL)-2-[4-METHOXY-7-(3-METHYL-[1,2,4]TRIAZOL-1-YL)-1H-PYRROLO[2,3-C]PYRIDIN-3-YL]-ETHANE-1,2-DIONE” (Bristol-Myers Squibb Company, priority 2004, published 2010).

For orientation: solubility means the concentration that dissolves in the medium under given conditions. The low end stands for a poorly soluble substance, the high end for a readily soluble substance.

The conditions of series [1]: as disclosed in co-pending application; cited from earlier work.
The nature of series [2]: aqueous solubility of crystalline Compound (I). Particulars: water (aqueous); crystalline material P-1. Format: physicochemical. From the text:
Compound (I) exists in several different crystalline forms: P-1, P-2, P-3, and P-4. […] The present invention relates to formulations that effectively deliver Compound (I).

SMILES strings stand for the structures. In brackets after ≈: the same amount, converted by molar mass.

As to `COc1cnc(-n2cnc(C)n2)c2[nH]cc(C(=O)C(=O)N3CCN(C(=O)c4ccccc4)CC3)c12` [Compound (I), 1-(4-benzoyl-piperazin-1-yl)-2-[4-methoxy-7-(3-methyl-[1,2,4]triazol-1-yl)-1H-pyrrolo[2,3-c]pyridin-3-yl]-ethane-1,2-dione], in series [1], the “solubility of Compound (I) in crystalline form” value is recorded as “typically low”.

Consider `COc1cnc(-n2cnc(C)n2)c2[nH]cc(C(=O)C(=O)N3CCN(C(=O)c4ccccc4)CC3)c12` [Sample P-1, 1-(4-benzoyl-piperazin-1-yl)-2-[4-methoxy-7-(3-methyl-[1,2,4]triazol-1-yl)-1H-pyrrolo[2,3-c]pyridin-3-yl]-ethane-1,2-dione], for which the concentration in solution in series [2] (solubility) came to 2.7 µg/mL (≈ 5.7 µM).
